Results on 16 molecules are retold here after patent publication US9492447B2, “Cannabinoid receptor modulators” (Arena Pharmaceuticals, Inc., priority 2011, dated 2016).

Molecules are shown by their SMILES. Several values for one entry are separate records, joined by “and”; a condition that tells them apart may be missing. Equal entries are not always repeated.

The subject of data set [1] is STZ-induced PDPN model, diabetic and allodynic rats. Kind of data set: Streptozotocin-induced painful diabetic peripheral neuropathy (PDPN) model. The format is in vivo, rat. Particulars: 10 mg/kg orally in 0.5% methylcellulose; 1, 4 and 6 hours post-dosing; FIG. 13, 14. As for the experimental part: Male Sprague-Dawley rats were injected intraperitoneally with 50 mg/kg of streptozotocin (STZ) in sodium citrate buffer. 10% sucrose water was provided ad libitum for the first 48 hours post-STZ followed by regular drinking water. Rats were monitored once weekly for blood glucose levels and body weights. Development of tactile allodynia over time was analyzed using Von Frey filaments and a 50% withdrawal threshold was determined using Dixon's up-down procedure. […] Tactile allodynia was evaluated at 1, 4 and 6 hours post-dosing.

A further data set deals with T1, human CB2 receptor (Homo sapiens, UniProt P34972).
T1 construct: CB2 was cloned into the pCMV-PK vector; 93-0164 (CHO-K1 EA-Arrestin parental cell line)
As to the kind of experiment: PathHunter β-arrestin assay, CB2 assay. The format is cell-based.

Data set [2] deals with acute and chronic pain from chemical, mechanical, and thermal pain stimuli. Particulars: animal studies; cited from earlier work.
Data set [3] concerns carrageenan, capsaicin, and formalin models of inflammatory pain in rodents. The settings on record: systemic delivery; cited from earlier work.
The test system of data set [4] is rats following ligation of spinal nerves. Particulars: cited from earlier work.
Data set [5] in a line: Dynamic moisture-sorption (DMS) analysis. Format: physicochemical. As for the experimental part:
A dynamic moisture-sorption (DMS) study was conducted using a dynamic moisture-sorption analyzer, VTI Corporation, SGA-100. The instrument was calibrated using polyvinyl pyrrolidone (PVP) and NaCl. Samples were prepared for DMS analysis by placing 5 mg to 20 mg of a sample in a tared sample holder. The sample was placed on the hang-down wire of the VTI balance. A drying step was run, typically at 40° C. and 0.5-1% RH for 1 h. The isotherm temperature is 25° C. Defined % RH holds typically ranged from 10% RH to 90% RH, with intervals of 10 to 20% RH. A % weight change smaller than 0.010% over 10 min, or up to 2 h, whichever occurred first, was required before continuing to the next % RH hold. The water content of the sample equilibrated as described above was determined at each % RH hold.

In the next data set the test system is CB1. The settings on record: exogenous administration of a CB1 agonist; cited from earlier work.
The test system of data set [6] is capsaicin-induced hyperalgesia and allodynia. The settings on record: topical administration, humans; cited from earlier work.
The subject of data set [7] is Monosodium iodoacetate-induced osteoarthritis rats. Kind of data set: Combination of Compound 699 and morphine in MIA-induced osteoarthritis pain, Von Frey test. Particulars: Von Frey one hour post-dosing. The format is in vivo, rat.

T1 sequence (P34972 whole entry): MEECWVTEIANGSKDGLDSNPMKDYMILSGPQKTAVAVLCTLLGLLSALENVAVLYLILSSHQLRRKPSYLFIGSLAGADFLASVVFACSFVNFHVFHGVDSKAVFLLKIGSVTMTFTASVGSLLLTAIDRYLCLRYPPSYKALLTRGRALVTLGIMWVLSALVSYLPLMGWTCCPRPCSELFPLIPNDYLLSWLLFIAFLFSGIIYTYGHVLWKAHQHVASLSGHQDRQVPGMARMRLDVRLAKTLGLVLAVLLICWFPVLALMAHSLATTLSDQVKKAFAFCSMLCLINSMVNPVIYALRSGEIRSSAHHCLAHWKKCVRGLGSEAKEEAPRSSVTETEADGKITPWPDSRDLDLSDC
Chain of CB1 (P47746 whole entry): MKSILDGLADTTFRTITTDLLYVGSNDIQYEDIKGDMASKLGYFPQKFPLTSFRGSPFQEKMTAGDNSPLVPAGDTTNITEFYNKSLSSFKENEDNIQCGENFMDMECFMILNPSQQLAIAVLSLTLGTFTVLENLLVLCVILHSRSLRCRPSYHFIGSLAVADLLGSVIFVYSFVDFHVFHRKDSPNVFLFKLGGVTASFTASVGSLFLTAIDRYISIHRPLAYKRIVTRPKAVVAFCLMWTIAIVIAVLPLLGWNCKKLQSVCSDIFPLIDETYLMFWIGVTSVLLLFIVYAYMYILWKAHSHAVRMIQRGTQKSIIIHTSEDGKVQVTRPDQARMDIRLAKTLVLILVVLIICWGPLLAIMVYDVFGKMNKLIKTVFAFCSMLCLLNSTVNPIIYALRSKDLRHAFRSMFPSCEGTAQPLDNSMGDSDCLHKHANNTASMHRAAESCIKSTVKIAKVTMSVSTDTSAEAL

Consider `CC(C)(NC(=O)c1nn(-c2c[n+]([O-])ccn2)c2c1C[C@@H]1C[C@H]21)C(F)(F)F` [Compound 919, (1aS,5aS)-2-(4-Oxy-pyrazin-2-yl)-1a,2,5,5a-tetrahydro-1H-2,3-diaza-cyclopropa[a]pentalene-4-carboxylic Acid (2,2,2-Trifluoro-1,1-dimethyl-ethyl)-amide], for which the “analgesic efficacy, tactile allodynia (50% withdrawal threshold)” value in data set [1] was “robust and sustained analgesic efficacy over 6 hours”. The molecule also had an EC50 at human CB2 receptor of 2.8 nM.
Turning to `Cc1c(C(=O)c2cccc3ccccc23)c2cccc3c2n1[C@H](CN1CCOCC1)CO3` [WIN 55212-2], in [2], the “effect against acute and chronic pain” value was “effective against acute and chronic pain”.
Take `CN1CCCCC1Cn1cc(C(=O)c2cc([N+](=O)[O-])ccc2I)c2ccccc21` (stereo not drawn) [AM1241]: the “effect on induced hyperalgesia” value in [3] is on record as “suppresses hyperalgesia”. For the same molecule, in [4] (local (subcutaneous) or systemic administration), the “effect on tactile and thermal hypersensitivity” value was “reverses tactile and thermal hypersensitivity”.
For `CC(C)(C)[C@@H](CO)NC(=O)c1nn(-c2c[n+]([O-])ccn2)c2c1C[C@@H]1C[C@H]21` [Compound 699 (Anhydrous Form), (1aS,5aS)-2-(4-Oxy-pyrazin-2-yl)-1a,2,5,5a-tetrahydro-1H-2,3-diaza-cyclopropa[a]pentalene-4-carboxylic Acid ((S)-1-Hydroxymethyl-2,2-dimethyl-propyl)-amide], the “Weight (% Change)” value in data set [5] (adsorption, sample RH 29.94 %, 25.32) is listed as 0.151%; in data set [5] (adsorption, sample RH 49.86 %, 25.31), 0.282%; in data set [5] (adsorption, sample RH 69.77 %, 25.3) it was 0.482%; in data set [5] (adsorption, sample RH 79.70 %, 25.29), 0.581%; in data set [5] (adsorption, sample RH 89.72 %, 25.3), 0.762%; in data set [5] (desorption, sample RH 10.06 %, 25.29), 0.080%. Also, the “Weight (% Change)” value in [5] (desorption, sample RH 29.99 %, 25.29) was 0.181%; in data set [5] (desorption, sample RH 50.07 %, 25.3) it was 0.364%; in data set [5] (desorption, sample RH 70.11 %, 25.30) it was 0.526%; in [5] (sample RH […], 25.46, elapsed 46.6 min (after drying)) it was 0%.
In the case of `CCCCC/C=C\C/C=C\C/C=C\C/C=C\CCCC(=O)NCCCl` [arachidonyl-2-chloroethylamide], in the data set on CB1, the effect on pain entry was “reduces pain”.
Molecule `O=C(NC1(C(F)(F)F)CCC1)c1nn(-c2c[n+]([O-])ccn2)c2c1C[C@@H]1C[C@H]21` [Compound 765, (1aS,5aS)-2-(4-Oxy-pyrazin-2-yl)-1a,2,5,5a-tetrahydro-1H-2,3-diaza-cyclopropa[a]pentalene-4-carboxylic Acid (1-Trifluoromethyl-cyclobutyl)-amide] registered a 50% effective concentration (EC50) on human CB2 receptor of 1.1 nM.
`CCCCCc1cc(O)c2c(c1)OC(C)(C)[C@@H]1CCC(C)=C[C@@H]21` [THC]: the “effect against acute and chronic pain” value in [2] was “effective against acute and chronic pain”.
On to `CCCCC/C=C\C/C=C\C/C=C\C/C=C\CCCC(=O)NCCO` [anandamide], for which the “effect against acute and chronic pain” value in data set [2] was “effective against acute and chronic pain”.
Turning to `COc1ccc(C(=O)c2c(C)n(CCN3CCOCC3)c3cc(I)ccc23)cc1` [AM630], the “effect on the reversal of hypersensitivity by AM1241” value in data set [4] (treatment with CB2-selective antagonist) is reported as “inhibited”.
For `COc1ccc2c(c1)c(CCN1CCOCC1)c(C)n2C(=O)c1cccc(Cl)c1Cl` [GW405833], the “effect on hypersensitivity to mechanical stimuli” value in [4] (administered systemically) is reported as “significantly reverses hypersensitivity to mechanical stimuli”.
As to `O=C(N[C@H]1c2ccccc2C[C@H]1O)c1nn(-c2c[n+]([O-])ccn2)c2c1C[C@@H]1C[C@H]21` [Compound 921, (1aS,5aS)-2-(4-Oxy-pyrazin-2-yl)-1a,2,5,5a-tetrahydro-1H-2,3-diaza-cyclopropa[a]pentalene-4-carboxylic Acid ((1S,2R)-2-Hydroxy-indan-1-yl)-amide], the EC50 on human CB2 receptor was 2.2 nM.
Take `CCCCCCC(C)(C)c1cc(O)c2c(c1)OC(C)(C)[C@@H]1CC=C(CO)C[C@@H]21` [HU-210]: the “effect on capsaicin-induced hyperalgesia and allodynia” value in data set [6] is “attenuates capsaicin-induced hyperalgesia and allodynia”.
On to `CN1CC[C@]23c4c5ccc(O)c4O[C@H]2[C@@H](O)C=C[C@H]3[C@H]1C5` [morphine, reference compound], for which the “paw withdrawal threshold (PWT), individual values” in [7] (1 mpk morphine intraperitoneally) was 4.25 and 8.44 and 5.57 and 5.44 and 4.72 and 2.02.
`CC(C)(C)[C@@H](CO)NC(=O)c1nn(-c2c[n+]([O-])ccn2)c2c1C[C@@H]1C[C@H]21` [Compound 699, (1aS,5aS)-2-(4-Oxy-pyrazin-2-yl)-1a,2,5,5a-tetrahydro-1H-2,3-diaza-cyclopropa[a]pentalene-4-carboxylic Acid ((S)-1-Hydroxymethyl-2,2-dimethyl-propyl)-amide]: the “paw withdrawal threshold (PWT), individual values” in data set [7] (1 mpk Compound 699 orally) was 6.66 and 5.56 and 11.69 and 5.54 and 7.80 and 3.58; in data set [7] (10 mpk Compound 699 orally (positive control)) it was 6.58 g and 7.8 g; in data set [7] (10 mpk Compound 699 orally (positive control), in g), 15.00 (3×) and 11.69. Besides, the “analgesic efficacy, tactile allodynia (50% withdrawal threshold)” value in data set [1] was “robust and sustained analgesic efficacy over 6 hours”.
On human CB2 receptor, `O=C(NC1(C(F)(F)F)CCC1)c1nn(-c2cnccn2)c2c1C[C@@H]1C[C@H]21` [Compound 926, (1aS,5aS)-2-Pyrazin-2-yl-1a,2,5,5a-tetrahydro-1H-2,3-diaza-cyclopropa[a]pentalene-4-carboxylic Acid (1-Trifluoromethyl-cyclobutyl)-amide] returned an EC50 of 4.1 nM.
For `CCCCCCC(C)(C)c1ccc([C@@H]2C[C@H](O)CC[C@H]2CCCO)c(O)c1` [CP55,940], the “effect against acute and chronic pain” value in data set [2] was “effective against acute and chronic pain”.
